Experimental data: patent publication US20130035281A1, “PHARMACEUTICAL COMPOSITION, METHODS FOR TREATING AND USES THEREOF” (BOEHRINGER INGELHEIM INTERNATIONAL GMBH, priority 2011, published 2013)

How the values were obtained:
[1] = tested on: Zucker diabetic fatty (ZDF) rats; test: Oral glucose tolerance test in ZDF rats; assay type: in vivo; details: overnight fasted 12-weeks old male ZDF rats; single dose; Cpd. A 3 mg/kg oral, exendin-4 0.01 mg/kg subcutaneous; oral glucose 2 g/kg; blood glucose up to 120 min
Procedure: An oral glucose tolerance test was performed in overnight fasted 12-weeks old male Zucker diabetic fatty (ZDF) rats (ZDF/CRL-Lepr^fa). A pre-dose blood sample was obtained by tail bleed. Blood glucose was measured with a glucometer, and the animals were randomized for blood glucose (n=5/group). Subsequently, the groups received a single oral administration of either vehicle alone (0.5% aqueous hydroxyethylcellulose) or this vehicle containing the glucopyranosyl-substituted benzene derivative. […] The animals were orally dosed with glucose (2 g/kg) 30 min after the subcutaneous injection. Blood glucose was measured in tail blood 15 min, 30 min, 60 min, 90 min, and 120 min thereafter. Glucose excursion was quantified by calculating the reactive glucose AUC. The data are presented as mean±S.E.M. The two-sided unpaired Student's t-test was used for statistical comparison of the groups. A p value<0.05 was considered to show a statistically significant difference.

[2] = metformin on its own, in the diabetic; cited from earlier work

## OC[C@H]1O[C@@H](c2ccc(Cl)c(Cc3ccc(O[C@H]4CCOC4)cc3)c2)[C@H](O)[C@@H](O)[C@@H]1O [Cpd. A]
[1]
  reduction of glucose excursion (reactive glucose AUC): 57%

## CN(C)C(=N)N=C(N)N [metformin]
[2]
  average improvement in the HbA1c value: 1.0-1.5%
